From patent publication US20230271943A1, “COMPOUNDS AS DHODH INHIBITORS” (Nanjing Zenshine Pharmaceuticals Co., Ltd., priority 2020, published 2023) come the findings set out here.

One data set addresses recombinant human DHODH (Homo sapiens, UniProt Q02127). Nature of the data set: Biochemical enzymatic assay (DCIP bleaching). The following applies: DCIP absorbance 600 nm, 60 min RT. Here is the method: The biochemical activity of DHODH was measured by the bleaching of the dye 2,6-dichlorophenolindophenol (DCIP) (Knecht W. et al., Biochem. Pharmacol. 1998, 56, 1259-1264). The assay was conducted in buffer containing 50 mM Tris, 150 mM KCI, and 0.1% Triton® X-100 (pH 8.0). 5 ng DHODH protein in 50 µL assay buffer was mixed in a well of 96-well clear assay plate (Corning Cat#3599) with 25 µL series concentration of inhibitor at room temperature for 30mins prior to adding 25 µL substrate solution (1 mM L-Dihydroorotic acid, 0.1 mM Decylubiquinone, 0.06 mM DCIP). After incubation at RT for 60mins, absorbance at 600 nm was obtained using a PerkinElmer multimode plate-reading spectrophotometer. Purified recombinant human DHODH was purchased from R&D systems (Catalog# 10062-DD-020), L-dihydroorotic acid (Sigma, D7128), decylubiquinone (Sigma, D7911), DCIP (Sigma, D1878) and other chemicals were purchased from Sigma-Aldrich.

In another data set the test system is MV-4-11 cells. Kind of data set: MV-4-11 cell proliferation assay (CellTiter-Glo). The following applies: Homo sapiens, MV4-11, 72 h, read-out: MV-4-11 Cell Proliferation Assay IC50. The data set is classed as cell-based. Here is the method: 5000 cells/well of MV-4-11 cells were seeded in IMDM 10% fetal calf serum (FBS, BI, Catalog#) in 96-well plates. The next day, cells were incubated with different concentrations of test compounds for 72 h. Cellular viability was analyzed using CellTiter-Glo® Luminescent Cell Viability Assay (Promega, #G7570) according to manufacturer’s instructions.

A further data set concerns A/PR/8/34 (H1N1) strain. Kind of data set: Antiviral CPE assay in MDCK cells, A/PR/8/34 (H1N1). The data set is classed as cell-based. The following applies: Influenza A virus, 120 h, 5 days, CCK-8, read-out: Activity of anti-A/PR/8/34 (H1N1) EC50.
The nature of the next data set: in vitro. The conditions noted are these: dog.
Another data set relates to H7N9 strain. Nature of the data set: microbe, parasite or virus in culture. It counts as cell-based. The conditions noted are these: Influenza A virus, H7N9, MDCK, 120 h, read-out: Anti-H7N9 EC50.
In a further data set the test system is H1N1(XJ49) strain. Nature of the data set: Antiviral CPE assay in MDCK cells, H1N1 (XJ49). The following applies: Influenza A virus, H1N1, 120 h, 5 days, CCK-8, read-out: anti-H1N1 (XJ49) EC50. The data set is classed as cell-based.
The test system of another data set is ZIKV strain. Nature of the data set: microbe, parasite or virus in culture. It counts as cell-based. The following applies: Zika virus, Vero, 72 h, read-out: Activity of anti-ZIKV EC50.

Chain of recombinant human DHODH (Q02127 whole entry): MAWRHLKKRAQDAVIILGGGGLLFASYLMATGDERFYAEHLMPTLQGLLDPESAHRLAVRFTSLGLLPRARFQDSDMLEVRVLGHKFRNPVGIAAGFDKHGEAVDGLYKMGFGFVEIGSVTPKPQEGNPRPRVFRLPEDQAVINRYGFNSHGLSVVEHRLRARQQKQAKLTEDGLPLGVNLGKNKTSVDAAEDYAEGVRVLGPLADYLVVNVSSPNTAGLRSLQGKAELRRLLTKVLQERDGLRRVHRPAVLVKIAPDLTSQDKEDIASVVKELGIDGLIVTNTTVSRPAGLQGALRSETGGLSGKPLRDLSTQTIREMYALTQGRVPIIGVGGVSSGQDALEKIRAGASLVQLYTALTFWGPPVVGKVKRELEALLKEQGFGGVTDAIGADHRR

In the case of `CCn1c(CO)nn(-c2cc3c(cc2F)c(=O)c(-c2c(F)cccc2Cl)nn3C(C)C)c1=O` [Compound 2, 3-(2-chloro-6-fluorophenyl)-7-(4-ethyl-3-(hydroxymethyl)-5-oxo-4,5-dihydro-1H-1,2,4-triazol-1-yl)-6-fluoro-1-isopropylcinnolin-4(1H)-one], the values for the IC50 on recombinant human DHODH and with MV-4-11 cells were 97 nM and 0.09 nM, respectively. Besides, the EC50 in the data set on A/PR/8/34 (H1N1) strain turned out to be 64 nM. In addition, in the data set “in vitro”, the CC50 was over 1000 nM.
`CCn1c(CO)nn(-c2cc3c(C(C)C)nn(-c4c(F)cccc4Cl)c(=O)c3cc2F)c1=O` [Compound 4, 2-(2-chloro-6-fluorophenyl)-6-(4-ethyl-3-(hydroxymethyl)-5-oxo-4,5-dihydro-1H-1,2,4-triazol-1-yl)-7-fluoro-4-isopropylphthalazin-1(2H)-one]: the IC50 is 11 nM at recombinant human DHODH and 0.9 nM in the data set with MV-4-11 cells. Also, the EC50 in the data set with A/PR/8/34 (H1N1) strain was 23 nM; in the data set with H7N9 strain, 14 nM; with H1N1(XJ49) strain, 5.7 nM; in the data set with ZIKV strain it was 0.37 nM. Also, in “in vitro”, the CC50 was over 1000 nM.
Consider `O=C1c2c(O)c(=O)ccn2N([C@@H]2c3ccccc3SCc3c2ccc(F)c3F)[C@@H]2COCCN12` [Baloxavir, reference compound], for which the EC50 in the data set with A/PR/8/34 (H1N1) strain amounted to 1.1 nM. The compound further showed a CC50 in “in vitro” of 18 nM.
Consider `CCn1c(CO)nn(-c2cc3c(cc2F)c(=O)c(-c2c(F)cccc2Cl)nn3C(C)C(F)(F)F)c1=O` (stereo not shown) [Compound 1, 3-(2-chloro-6-fluorophenyl)-7-(4-ethyl-3-(hydroxymethyl)-5-oxo-4,5-dihydro-1H-1,2,4-triazol-1-yl)-6-fluoro-1-(1,1,1-trifluoropropan-2-yl)cinnolin-4(1H)-one], for which the IC50 at recombinant human DHODH was determined as 215 nM.
For `CCC(CC)O[C@@H]1C=C(C(=O)O)C[C@H](N)[C@H]1NC(C)=O` [Oseltamivir acid, reference compound], the EC50 with A/PR/8/34 (H1N1) strain was […]. The same compound showed a CC50 in the data set “in vitro” of over 100 nM.
